Data set [1] can be described thus: Metabolic stability in rat liver microsomes. As to conditions: 30 minutes incubation, remaining compound by HPLC. In kind it is in vitro ADME. How it is done:
In order to probe the metabolic stability of the compounds of the invention, a series of compounds were selected for stability testing in rat liver microsomes. A DMSO solution of each compound was incubated for 30 minutes in the presence of rat liver homogenate. The percentage of remaining compound was assessed by HPLC. An approximate half life was calculated from the percentage of remaining compound. Table II, below, illustrates a comparison of the in vitro microsomal half life of the selected compounds verses a series of related compounds lacking the C-6 alkyl group. […] It is generally accepted in the industry that improved in vitro metabolic stability frequently translates into improved in vivo metabolic stability. Improved metabolic stability may translate to increased in vivo exposure levels.
(Liver microsomes are a subcellular fraction often used to study metabolism.)

Data set [2] deals with T1, human PKCθ full length enzyme (Homo sapiens, UniProt Q04759).
T1 construct: human PKCθ full length enzyme (Panvera Cat# P2996); purchased Panvera P2996
T1 sequence (Q04759 whole entry): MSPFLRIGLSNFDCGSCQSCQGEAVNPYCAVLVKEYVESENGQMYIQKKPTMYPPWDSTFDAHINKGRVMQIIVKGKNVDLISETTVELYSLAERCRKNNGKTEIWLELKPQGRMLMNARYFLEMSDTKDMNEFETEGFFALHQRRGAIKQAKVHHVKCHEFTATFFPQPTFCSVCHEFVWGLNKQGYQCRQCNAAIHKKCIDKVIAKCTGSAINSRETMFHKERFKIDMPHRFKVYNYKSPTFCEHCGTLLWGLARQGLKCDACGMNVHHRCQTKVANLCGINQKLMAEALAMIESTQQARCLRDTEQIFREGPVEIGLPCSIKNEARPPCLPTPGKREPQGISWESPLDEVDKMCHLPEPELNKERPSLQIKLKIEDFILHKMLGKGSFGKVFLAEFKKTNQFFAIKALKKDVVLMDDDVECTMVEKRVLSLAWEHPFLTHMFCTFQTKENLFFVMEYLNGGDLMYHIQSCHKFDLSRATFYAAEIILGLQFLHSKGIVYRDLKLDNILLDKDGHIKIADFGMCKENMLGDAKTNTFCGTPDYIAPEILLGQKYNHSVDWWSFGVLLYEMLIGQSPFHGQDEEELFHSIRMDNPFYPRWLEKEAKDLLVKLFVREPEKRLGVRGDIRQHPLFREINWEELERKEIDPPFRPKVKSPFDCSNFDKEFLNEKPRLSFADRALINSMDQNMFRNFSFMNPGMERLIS
The data set is described as follows: PKCθ IMAP Assay. In kind it is biochemical. As to conditions: PKCθ 1 nM; ATP 6 μM; peptide 100 nM; DMSO 5%; 25 minutes at room temperature; FP readout; read-out: PKC-Theta Mean IC50. On the procedure: The materials used include the following: human PKCθ full length enzyme (Panvera Cat# P2996); substrate peptide: 5FAM-RFARKGSLRQKNV-OH (Molecular Devices, RP7032); ATP (Sigma Cat # A2383); DTT (Pierce, 20291); 5× kinase reaction buffer (Molecular Devices, R7209); 5× binding buffer A (Molecular Devices, R7282), 5× binding buffer B (Molecular Devices, R7209); IMAP Beads (Molecular Devices, R7284); and 384-well plates (Corning Costar, 3710).
The reaction buffer was prepared by diluting the 5× stock reaction buffer and adding DTT to obtain a concentration of 3.0 mM. The binding buffer was prepared by diluting the 5× binding buffer A. A master mix solution was prepared using a 90% dilution of the reaction buffer containing 2×ATP (12 uM) and 2× peptide (200 nm). Compounds were diluted in DMSO to 20× of the maximum concentration for the IC50 measurement. 27 μl of the master mix solution for each IC50 curve was added to the first column in a 384-well plate and 3 μl of 20× compound in DMSO was added to each well.
The final concentration of compound was 2× and 10% DMSO. DMSO was added to the rest of the master mix to increase the concentration to 10%. 10 μl of the master mix containing 10% DMSO was added to the rest of the wells on the plate except the 2nd column. 20 μl was transferred from the first column to the 2nd column. The compounds were serially diluted in 2:1 ratio starting from the 2nd column. A 2×(2 nM) PKCθ solution was made in the reaction buffer. 10 μl of the PKCθ solution was added to every well to achieve these final concentrations: PKCθ-1 nM; ATP-6 μM; peptide-100 nM; DMSO-5%. Samples were incubated for 25 minutes at room temperature. The binding reagent was prepared by diluting the beads in 1× binding buffer to 800:1. 50 μl of the binding reagent was added to every well and incubated for 20 minutes. FP was measured using Envision2100 (PerkinElmer Life Sciences). Wells with no ATP and wells with no enzyme were used as controls.

Setting [3] is: related compounds lacking the C-6 alkyl group, read-out: Rat Microsome Stability of 6-H cyanopyridine Compounds (approximate half life).
The mark [4] stands for this setting: 6-Me compounds of the invention, read-out: Rat Microsome Stability of 6-Me cyanopyridine Compounds (approximate half life).

Read-outs that look alike come from different tables or passages of the source.

Take `Cc1c(Nc2c(C#N)cncc2-c2ccc(OCCNCc3ccccc3)cc2)ccc2[nH]ccc12`: the half-life (as a rule, the time in which the quantity being followed falls by half) in data set [1] (setting [3]) was 6 min. Regarding `Cc1ncc(C#N)c(Nc2ccc3[nH]ccc3c2C)c1-c1ccc(OCCN2CCCC2)cc1` [Example 20, 6-methyl-4-[(4-methyl-1H-indol-5-yl)amino]-5-[4-(2-pyrrolidin-1-ylethoxy)phenyl]nicotinonitrile], the IC50 (in general, the midpoint of a concentration-inhibition curve) in data set [2] was determined as 25 nM. Moreover, the half-life in data set [1] (setting [4]) is more than 30 min. `Cc1ncc(C#N)c(Nc2ccc3[nH]ccc3c2C)c1-c1cc2cc(CN3CCN(C)CC3)ccc2o1` [Example 16, 6-methyl-4-[(4-methyl-1H-indol-5-yl)amino]-5-{5-[(4-methylpiperazin-1-yl)methyl]-1-benzofuran-2-yl}nicotinonitrile]: the melting point (as a rule, the temperature, or range, at which the solid turns liquid) lay within 218 to 220 °C. Further, in data set [2], the IC50 came to 2.7 nM.

For the compound `Cc1c(Nc2c(C#N)cncc2-c2ccc(OCCN3CCOCC3)cc2)ccc2[nH]ccc12`, the half-life in data set [1] (setting [3]) is 8 min. Compound `Cc1ncc(C#N)c(Nc2ccc3[nH]ccc3c2C)c1-c1ccc(OCCCl)cc1` [Example 12, 5-[4-(2-chloroethoxy)phenyl]-6-methyl-4-[(4-methyl-1H-indol-5-yl)amino]nicotinonitrile] gave a melting point of 200 to 201 °C. The IC50 in data set [2] turned out to be 30 nM. On to `CCOCCNCCOc1ccc(-c2c(C)ncc(C#N)c2Nc2ccc3[nH]ccc3c2C)cc1` [Example 19, 5-(4-{2-[(2-ethoxyethyl)amino]ethoxy}phenyl)-6-methyl-4-[(4-methyl-1H-indol-5-yl)amino]nicotinonitrile], for which the IC50 in data set [2] worked out at 46 nM. Also, the half-life in data set [1] (setting [4]) was more than 30 min. The like results for `Cc1ncc(C#N)c(Nc2ccc3[nH]ccc3c2C)c1-c1ccc(OCCN2CCN(CCN(C)C)CC2)cc1` [Example 36, 5-[4-(2-{4-[2-(dimethylamino)ethyl]piperazin-1-yl}ethoxy)phenyl]-6-methyl-4-[(4-methyl-1H-indol-5-yl)amino]nicotinonitrile] were, in that order, 33 nM and more than 30 min.

Consider `Cc1ncc(C#N)c(Nc2ccc3[nH]ccc3c2C)c1-c1ccc(OCCN2CCOCC2)cc1` [Example 30, 6-methyl-4-[(4-methyl-1H-indol-5-yl)amino]-5-[4-(2-morpholin-4-ylethoxy)phenyl]nicotinonitrile], for which the IC50 in data set [2] was found to be 124 nM. In addition, the half-life in data set [1] (setting [4]) was 17 min. For the compound `CCN1CCN(CCOc2ccc(-c3cncc(C#N)c3Nc3ccc4[nH]ccc4c3C)cc2)CC1`, the half-life in data set [1] (setting [3]) is 8 min. `Cc1ncc(C#N)c(Nc2ccc3[nH]ccc3c2C)c1-c1cc2cc(C=O)ccc2o1` [Example 15, 5-(5-formyl-1-benzofuran-2-yl)-6-methyl-4-[(4-methyl-1H-indol-5-yl)amino]nicotinonitrile] gave a melting point of 168 to 169 °C. For the same compound, in data set [2], the IC50 was determined as 12 nM. On to `Cc1c(Nc2c(C#N)cncc2-c2ccc(OCCNC3CCN(C)CC3)cc2)ccc2[nH]ccc12`, for which, in data set [1] (setting [3]), the half-life was more than 30 min. Still for that read-out and setting: next, `Cc1c(Nc2c(C#N)cncc2-c2ccc(OCCN3CCN(CCO)CC3)cc2)ccc2[nH]ccc12`: 11 min. Still for that read-out and setting: next, `Cc1c(Nc2c(C#N)cncc2-c2ccc(OCCNCC3CCN(C)CC3)cc2)ccc2[nH]ccc12`: more than 30 min. As for `Cc1ncc(C#N)c(Nc2ccc3[nH]ccc3c2C)c1-c1ccc(OCCN2CCC(c3ccccc3)CC2)cc1` [Example 29, 6-methyl-4-[(4-methyl-1H-indol-5-yl)amino]-5-{4-[2-(4-phenylpiperidin-1-yl)ethoxy]phenyl}nicotinonitrile], in data set [2], the IC50 came out at 272 nM. The half-life in data set [1] (setting [4]) was determined as 20 min. Take `COc1ccc(-c2c(C)ncc(C#N)c2Nc2ccc3[nH]ccc3c2C)cc1OC` [Example 9, 5-(3,4-dimethoxyphenyl)-6-methyl-4-[(4-methyl-1H-indol-5-yl)amino]nicotinonitrile]: the melting point lay in the range of 202 to 203 °C. For the same compound, in data set [2], the IC50 worked out at 67 nM. Take `Cc1c(Nc2c(C#N)cncc2-c2ccc(OCCNCc3ccccn3)cc2)ccc2[nH]ccc12`: the half-life in data set [1] (setting [3]) was found to be 3 min. For the compound “5-{4-[2-(4-cyclopentylpiperazin-1-yl)ethoxy]phenyl}-6-methyl-4-[(4-methyl-1H-indol-5-yl)amino]nicotinonitrile [Example 37]”, the IC50 in data set [2] came to 30 nM. Also, the “Rat Microsome Stability of 6-Me cyanopyridine Compounds (approximate half life)” value in data set [1] (6-Me compounds of the invention) is given as more than 30 min. For the compound `Cc1c(Nc2c(C#N)cncc2-c2ccc(OCCN3CCC(N4CCCC4)CC3)cc2)ccc2[nH]ccc12`, the half-life in data set [1] (setting [3]) was more than 30 min.

For the compound `Cc1ncc(C#N)c(Nc2ccc3[nH]ccc3c2C)c1-c1ccc(OCCNC2CCN(C)CC2)cc1` [Example 22, 6-methyl-4-[(4-methyl-1H-indol-5-yl)amino]-5-(4-{2-[(1-methylpiperidin-4-yl)amino]ethoxy}phenyl)nicotinonitrile], the IC50 in data set [2] amounted to 9 nM. For the same compound, the half-life in data set [1] (setting [4]) was more than 30 min. Turning to `Cc1ncc(C#N)c(Nc2ccc3[nH]ccc3c2C)c1-c1ccc(OCCNCc2ccccc2)cc1` [Example 39, 5-{4-[2-(benzylamino)ethoxy]phenyl}-6-methyl-4-[(4-methyl-1H-indol-5-yl)amino]nicotinonitrile], the IC50 in data set [2] is 73 nM. In data set [1] (setting [4]), the half-life was 14 min. The like results for `Cc1ncc(C#N)c(Nc2ccc3[nH]ccc3c2C)c1-c1ccc(OCCN2CCN(CCO)CC2)cc1` [Example 35, 5-(4-{2-[4-(2-hydroxyethyl)piperazin-1-yl]ethoxy}phenyl)-6-methyl-4-[(4-methyl-1H-indol-5-yl)amino]nicotinonitrile] were, in that order, 44 nM and more than 30 min. The corresponding values for `Cc1ncc(C#N)c(Nc2ccc3[nH]ccc3c2C)c1-c1ccc(OCCNCCCn2ccnc2)cc1` [Example 38, 5-[4-(2-{[3-(1H-imidazol-1-yl)propyl]amino}ethoxy)phenyl]-6-methyl-4-[(4-methyl-1H-indol-5-yl)amino]nicotinonitrile] are 14 nM and more than 30 min. With `Cc1c(Nc2c(C#N)cncc2-c2ccc(OCCN3CCC(c4ccccc4)CC3)cc2)ccc2[nH]ccc12`, the half-life in data set [1] (setting [3]) worked out at 5 min. As to `Cc1ncc(C#N)c(Nc2ccc3[nH]ccc3c2C)c1-c1ccc(OCCNCC2CCN(C)CC2)cc1` [Example 23, 6-methyl-4-[(4-methyl-1H-indol-5-yl)amino]-5-[4-(2-{[(1-methylpiperidin-4-yl)methyl]amino}ethoxy)phenyl]nicotinonitrile], in data set [2], the IC50 is 8 nM. Besides, the half-life in data set [1] (setting [4]) is more than 30 min. Regarding `Cc1c(Nc2c(C#N)cncc2-c2ccc(OCCN3CCN(CCN(C)C)CC3)cc2)ccc2[nH]ccc12`, the half-life in data set [1] (setting [3]) is more than 30 min.

`CCN1CCN(CCOc2ccc(-c3c(C)ncc(C#N)c3Nc3ccc4[nH]ccc4c3C)cc2)CC1` [Example 33, 5-{4-[2-(4-ethylpiperazin-1-yl)ethoxy]phenyl}-6-methyl-4-[(4-methyl-1H-indol-5-yl)amino]nicotinonitrile]: in data set [2], the IC50 was 44 nM. The half-life in data set [1] (setting [4]) is more than 30 min. On to `Cc1c(Nc2c(C#N)cncc2-c2ccc(OCCN3CCN(C)CC3)cc2)ccc2[nH]ccc12`, for which the half-life in data set [1] (setting [3]) worked out at 14 min. As to `Cc1ncc(C#N)c(Nc2ccc3[nH]ccc3c2C)c1-c1ccc(OCCNCc2ccccn2)cc1` [Example 40, 6-methyl-4-[(4-methyl-1H-indol-5-yl)amino]-5-(4-{2-[(pyridin-2-ylmethyl)amino]ethoxy}phenyl)nicotinonitrile], the IC50 in data set [2] was determined as 29 nM. For the same compound, in data set [1] (setting [4]), the half-life was 13 min.

For the compound `Cc1c(Nc2c(C#N)cncc2-c2ccc(OCCN3CCCC3)cc2)ccc2[nH]ccc12`, in data set [1] (setting [3]), the half-life is 21 min. Still for that read-out and setting: the result for `Cc1c(Nc2c(C#N)cncc2-c2ccc(OCCN3CCC(N4CCOCC4)CC3)cc2)ccc2[nH]ccc12` reads 10 min. Consider `CCOCCNCCOc1ccc(-c2cncc(C#N)c2Nc2ccc3[nH]ccc3c2C)cc1`, for which the half-life in data set [1] (setting [3]) was determined as 7 min.

Take `Cc1c(Nc2c(C#N)cncc2-c2ccc(OCCNCCCn3ccnc3)cc2)ccc2[nH]ccc12`: the half-life in data set [1] (setting [3]) was 22 min.

The values above are taken from patent US20110028455A1, “Indole-substituted 3-cyanopyridines As Kinase Inhibitors” (Wyeth LLC, priority 2007, published 2011).
